The values below come from the supplement of paper PMC10331698.

Holding throughout (assay): level (log10 ratio to DMSO vehicle control); higher = higher biomarker level / cell amount than vehicle control
Compound in test [1]: O=S(=O)(Cl)C(F)(F)C(F)(F)C(F)(F)C(F)(F)C(F)(F)C(F)(F)C(F)(F)C(F)(F)F [Perfluoro-1-octanesulfonyl chloride]
To be noted: in DMSO. As for the experimental part:
(§1)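 BioMAP Diversity Plus panel of 12 human primary cell co-culture systems (3C, 4H, LPS, SAg, BT, BF4T, BE3C, CASM3C, HDF3CGF, KF3CT, MyoF, Mphg). Compounds were added 1 h before stimulation and left for 24 h (MyoF 48 h; BT 72 h for soluble read-outs or 6 d for IgG). Biomarkers were read by ELISA, cytotoxicity by SRB, PBMC viability and proliferation by Alamar Blue. Each well value was divided by the mean of 8 DMSO control wells on the same plate and log10 transformed; duplicate blinded samples were tested at 4 concentrations.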

Compound in the next test: NC(=O)C(F)(F)C(F)(F)C(F)(F)C(F)(F)C(N)=O [Octafluoroadipamide]
To be noted: in DMSO. As for the experimental part:
as §1

Compound in the next test: FC(F)(F)C(F)(F)C(F)(F)CI [Heptafluorobutyl iodide]
To be noted: in DMSO. As for the experimental part: as §1

Compound in test [2]: C=CC(=O)OCC(F)(F)C(F)(F)C(F)(F)COC(=O)C=C [1H,1H,5H,5H-Perfluoro-1,5-pentanediol diacrylate]
To be noted: 6700 nM; in DMSO. As to the method:
as §1

Compound in another test: NC(=O)C(F)(F)C(F)(F)C(F)(F)C(F)(F)F [Nonafluoropentanamide]
To be noted: in DMSO. As to the method:
as §1

Compound in test [3]: FC(F)(F)C(F)(F)C(F)(F)C(F)(F)C(F)(F)C(F)(F)C(F)(F)I [1-Iodopentadecafluoroheptane]
To be noted: in DMSO. As for the experimental part:
as §1

Compound in test [4]: O=S(=O)(O)CCC(F)(F)C(F)(F)C(F)(F)C(F)(F)C(F)(F)C(F)(F)F [6:2 Fluorotelomer sulfonic acid]
To be noted: in DMSO. As for the experimental part: as §1

± gives the standard deviation of the averaged measurements.

As to LPS:CD141/Thrombomodulin, the “level (log10)” value in test [1] (6700 nM) was -0.035 ± 0.025; in test [1] (20000 nM), -0.028 ± 0.034; in test [1] (60000 nM), 0.083 ± 0.014; with Octafluoroadipamide (6700 nM) it was -0.029 ± 0.1; in the test with Octafluoroadipamide (20000 nM), 0.014 ± 0.076; with Octafluoroadipamide (60000 nM), 0.0355 ± 0.056. Besides, the “level (log10)” value stood at 0.0135 ± 0.14 in the test with Heptafluorobutyl iodide (6700 nM); 0.0175 ± 0.14 with Heptafluorobutyl iodide (20000 nM); 0.0485 ± 0.1 in the test with Heptafluorobutyl iodide (60000 nM); 0.0505 ± 0.054 in test [2]; 0.005 ± 0.027 in the test with Nonafluoropentanamide (6700 nM); 0.018 ± 0.035 in the test with Nonafluoropentanamide (20000 nM). In addition, the “level (log10)” value in the test with Nonafluoropentanamide (60000 nM) is 0.0435 ± 0.035; in test [3] (6700 nM), 0.0215 ± 0.023; in test [3] (20000 nM), -0.024 ± 0.075; in test [4] (6700 nM), 0.061 ± 0.03; in test [4] (20000 nM) it was 0.065 ± 0.0057; in test [4] (60000 nM) it was 0.0475 ± 0.021.

Regarding LPS:CXCL8/IL-8, the “level (log10)” value in test [1] (6700 nM) was -0.005 ± 0.013; in test [1] (20000 nM), 0.0425 ± 0.0092; in test [1] (60000 nM) it was 0.159 ± 0.0057; with Octafluoroadipamide (6700 nM) it was -0.0035 ± 0.033; with Octafluoroadipamide (20000 nM), 0.007 ± 0.0085; with Octafluoroadipamide (60000 nM) it was 0.01 ± 0.013. Also, the “level (log10)” value is 0.022 ± 0.13 in the test with Heptafluorobutyl iodide (6700 nM); 0.042 ± 0.076 in the test with Heptafluorobutyl iodide (20000 nM); 0.087 ± 0.0071 with Heptafluorobutyl iodide (60000 nM); -0.0285 ± 0.00071 in test [2]; -0.034 ± 0.028 with Nonafluoropentanamide (6700 nM); -0.002 ± 0.034 with Nonafluoropentanamide (20000 nM). In addition, the “level (log10)” value in the test with Nonafluoropentanamide (60000 nM) is 0.032 ± 0.052; in test [3] (6700 nM), 0.026 ± 0.055; in test [3] (20000 nM), 0.0325 ± 0.005; in test [4] (6700 nM) it was 0.045 ± 0.013; in test [4] (20000 nM), 0.072 ± 0.064; in test [4] (60000 nM), 0.192 ± 0.1.

Consider LPS:sPGE2, for which the “level (log10)” value is 0.0585 ± 0.0078 in test [1] (6700 nM); -0.02 ± 0.016 in test [1] (20000 nM); -0.272 ± 0.03 in test [1] (60000 nM); 0.083 ± 0.037 with Octafluoroadipamide (6700 nM); -0.04 ± 0.018 with Octafluoroadipamide (20000 nM); -0.0165 ± 0.026 with Octafluoroadipamide (60000 nM). The “level (log10)” value with Heptafluorobutyl iodide (6700 nM) is -0.0175 ± 0.026; with Heptafluorobutyl iodide (20000 nM) it was 0.0095 ± 0.064; in the test with Heptafluorobutyl iodide (60000 nM), 0.0105 ± 0.064; in test [2] it was -0.105 ± 0.028; with Nonafluoropentanamide (6700 nM), -0.0015 ± 0.013; with Nonafluoropentanamide (20000 nM), -0.0115 ± 0.016. Also, the “level (log10)” value is -0.022 ± 0.0099 with Nonafluoropentanamide (60000 nM); -0.062 ± 0.013 in test [3] (6700 nM); -0.103 ± 0.027 in test [3] (20000 nM); -0.008 ± 0.023 in test [4] (6700 nM); -0.0215 ± 0.047 in test [4] (20000 nM); -0.0345 ± 0.029 in test [4] (60000 nM).

Take LPS:sTNF-alpha: the “level (log10)” value in test [1] (6700 nM) was -0.0175 ± 0.044; in test [1] (20000 nM), -0.002 ± 0.045; in test [1] (60000 nM), -0.026 ± 0.052; in the test with Octafluoroadipamide (6700 nM) it was 0.047 ± 0.018; in the test with Octafluoroadipamide (20000 nM), 0.0355 ± 0.018; in the test with Octafluoroadipamide (60000 nM) it was 0.037 ± 0.0042. The “level (log10)” value is -0.009 ± 0.017 with Heptafluorobutyl iodide (6700 nM); -0.0095 ± 0.016 with Heptafluorobutyl iodide (20000 nM); -0.009 ± 0.023 in the test with Heptafluorobutyl iodide (60000 nM); -0.008 ± 0.0057 in test [2]; 0.018 ± 0.037 with Nonafluoropentanamide (6700 nM); 0.0125 ± 0.0092 in the test with Nonafluoropentanamide (20000 nM). Further, the “level (log10)” value with Nonafluoropentanamide (60000 nM) is -0.043 ± 0.013; in test [3] (6700 nM), 0.0115 ± 0.018; in test [3] (20000 nM) it was 0.0025 ± 0.0092; in test [4] (6700 nM), -0.002 ± 0.0042; in test [4] (20000 nM) it was 0 ± 0.0057; in test [4] (60000 nM), 0.0015 ± 0.0092.

Take SAg:CCL2/MCP-1: the “level (log10)” value was -0.028 ± 0.017 in test [1] (6700 nM); 0.0005 ± 0.025 in test [1] (20000 nM); 0.041 ± 0.0028 in test [1] (60000 nM); -0.001 ± 0.0071 with Octafluoroadipamide (6700 nM); 0.002 ± 0.0014 with Octafluoroadipamide (20000 nM); 0.0105 ± 0.016 in the test with Octafluoroadipamide (60000 nM). For the same test system, the “level (log10)” value is -0.0095 ± 0.0078 in the test with Heptafluorobutyl iodide (6700 nM); -0.0025 ± 0.00071 in the test with Heptafluorobutyl iodide (20000 nM); 0.01 ± 0.011 in the test with Heptafluorobutyl iodide (60000 nM); -0.13 ± 0.04 in test [2]; -0.0125 ± 0.0035 with Nonafluoropentanamide (6700 nM); -0.0175 ± 0.012 with Nonafluoropentanamide (20000 nM). Also, the “level (log10)” value was 0.0195 ± 0.053 with Nonafluoropentanamide (60000 nM); 0.02 ± 0.05 in test [3] (6700 nM); 0.0105 ± 0.033 in test [3] (20000 nM); -0.019 ± 0.0085 in test [4] (6700 nM); -0.015 ± 0.0042 in test [4] (20000 nM); 0.0035 ± 0.019 in test [4] (60000 nM).

In the case of SAg:CD40, the “level (log10)” value was 0.002 ± 0.0071 in test [1] (6700 nM); -0.015 ± 0.0028 in test [1] (20000 nM); -0.078 ± 0.034 in test [1] (60000 nM); -0.002 ± 0.0028 with Octafluoroadipamide (6700 nM); -0.001 ± 0.0014 in the test with Octafluoroadipamide (20000 nM); -0.001 ± 0.024 with Octafluoroadipamide (60000 nM). The “level (log10)” value in the test with Heptafluorobutyl iodide (6700 nM) was -0.027 ± 0.011; in the test with Heptafluorobutyl iodide (20000 nM) it was -0.0445 ± 0.016; with Heptafluorobutyl iodide (60000 nM), -0.024 ± 0.016; in test [2], -0.14 ± 0.033; with Nonafluoropentanamide (6700 nM), -0.0145 ± 0.033; with Nonafluoropentanamide (20000 nM) it was 0.0055 ± 0.013. Besides, the “level (log10)” value was 0.002 ± 0.018 with Nonafluoropentanamide (60000 nM); -0.0065 ± 0.013 in test [3] (6700 nM); -0.007 ± 0.0085 in test [3] (20000 nM); -0.0275 ± 0.046 in test [4] (6700 nM); -0.0285 ± 0.064 in test [4] (20000 nM); -0.053 ± 0.035 in test [4] (60000 nM).
